Experimental data from PubChem BioAssay (NCI).
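Briefly, cells in 96-well plates were exposed to five compound concentrations for 48 h, and endpoints were estimated by linear interpolation. At the GI50, growth is halved. TGI: concentration producing complete growth inhibition.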

Tests used:
Assay in all cases: DTP human tumour cell line panel, 48 h
UACC-257 melanoma = system: UACC-257 melanoma
SK-MEL-28 melanoma = system: SK-MEL-28 melanoma
SF-295 CNS = system: SF-295 CNS
SK-OV-3 ovarian = system: SK-OV-3 ovarian
OVCAR-4 ovarian = system: OVCAR-4 ovarian
UACC-62 melanoma = system: UACC-62 melanoma
A549 NSCLC = system: A549 NSCLC
M14 melanoma = system: M14 melanoma
TK-10 renal = system: TK-10 renal
MDA-MB-435 = system: MDA-MB-435
KM12 colon = system: KM12 colon
A498 renal = system: A498 renal
LOX IMVI melanoma = system: LOX IMVI melanoma
SF-539 CNS = system: SF-539 CNS
HOP-92 NSCLC = system: HOP-92 NSCLC
NCI-H522 lung = system: NCI-H522 lung
MOLT-4 leukemia = system: MOLT-4 leukemia
MCF7 breast = system: MCF7 breast
RPMI-8226 leukemia = system: RPMI-8226 leukemia
U251 CNS = system: U251 CNS
HL-60(TB) leukemia = system: HL-60(TB) leukemia
UO-31 renal = system: UO-31 renal
CAKI-1 renal = system: CAKI-1 renal
HT29 colon = system: HT29 colon
CCRF-CEM leukemia = system: CCRF-CEM leukemia
SR leukemia = system: SR leukemia
HCT-116 colon = system: HCT-116 colon
HS 578T breast = system: HS 578T breast
SNB-75 CNS = system: SNB-75 CNS
EKVX NSCLC = system: EKVX NSCLC
IGROV1 ovarian = system: IGROV1 ovarian
HCT-15 colon = system: HCT-15 colon
SNB-19 CNS = system: SNB-19 CNS
MALME-3M melanoma = system: MALME-3M melanoma
SF-268 CNS = system: SF-268 CNS
SW-620 colon = system: SW-620 colon
DU-145 prostate = system: DU-145 prostate
OVCAR-3 ovarian = system: OVCAR-3 ovarian
COLO 205 colon = system: COLO 205 colon
OVCAR-5 ovarian = system: OVCAR-5 ovarian
HCC-2998 colon = system: HCC-2998 colon
786-0 renal = system: 786-0 renal
T-47D breast = system: T-47D breast
NCI/ADR-RES ovarian = system: NCI/ADR-RES ovarian
K-562 leukemia = system: K-562 leukemia
SK-MEL-5 melanoma = system: SK-MEL-5 melanoma
ACHN renal = system: ACHN renal
MDA-MB-231 breast = system: MDA-MB-231 breast
NCI-H226 lung = system: NCI-H226 lung
NCI-H23 lung = system: NCI-H23 lung
OVCAR-8 ovarian = system: OVCAR-8 ovarian
BT-549 breast = system: BT-549 breast
HOP-62 NSCLC = system: HOP-62 NSCLC
PC-3 prostate = system: PC-3 prostate
NCI-H460 lung = system: NCI-H460 lung

COc1ccc2nc(NC(=O)CSc3nnc4n3S(=O)(=O)c3ccccc3N4c3ccccc3)sc2c1
GI50 (UACC-257 melanoma): > 100 µM | TGI (UACC-257 melanoma): > 100 µM | GI50 (SK-MEL-28 melanoma): > 100 µM | TGI (SK-MEL-28 melanoma): > 100 µM | GI50 (SF-295 CNS): > 100 µM | TGI (SF-295 CNS): > 100 µM | GI50 (SK-OV-3 ovarian): > 100 µM | TGI (SK-OV-3 ovarian): > 100 µM | GI50 (OVCAR-4 ovarian): > 100 µM | TGI (OVCAR-4 ovarian): > 100 µM | GI50 (UACC-62 melanoma): 48.5 µM | TGI (UACC-62 melanoma): > 100 µM | GI50 (A549 NSCLC): > 100 µM | TGI (A549 NSCLC): > 100 µM | GI50 (M14 melanoma): > 100 µM | TGI (M14 melanoma): > 100 µM | GI50 (TK-10 renal): > 100 µM | TGI (TK-10 renal): > 100 µM | GI50 (MDA-MB-435): > 100 µM | TGI (MDA-MB-435): > 100 µM | GI50 (KM12 colon): > 100 µM | TGI (KM12 colon): > 100 µM | GI50 (A498 renal): > 100 µM | TGI (A498 renal): > 100 µM | GI50 (LOX IMVI melanoma): > 100 µM | TGI (LOX IMVI melanoma): > 100 µM | GI50 (SF-539 CNS): > 100 µM | TGI (SF-539 CNS): > 100 µM | GI50 (HOP-92 NSCLC): 42.7 µM | TGI (HOP-92 NSCLC): > 100 µM | GI50 (NCI-H522 lung): 30.4 µM | TGI (NCI-H522 lung): > 100 µM | GI50 (MOLT-4 leukemia): > 100 µM | TGI (MOLT-4 leukemia): > 100 µM | GI50 (MCF7 breast): > 100 µM | TGI (MCF7 breast): > 100 µM | GI50 (RPMI-8226 leukemia): 1.45 µM | TGI (RPMI-8226 leukemia): > 100 µM | GI50 (U251 CNS): 52.4 µM | TGI (U251 CNS): > 100 µM | GI50 (HL-60(TB) leukemia): 91.5 µM | TGI (HL-60(TB) leukemia): > 100 µM | GI50 (UO-31 renal): > 100 µM | TGI (UO-31 renal): > 100 µM | GI50 (CAKI-1 renal): > 100 µM | TGI (CAKI-1 renal): > 100 µM | GI50 (HT29 colon): > 100 µM | TGI (HT29 colon): > 100 µM | GI50 (CCRF-CEM leukemia): > 100 µM | TGI (CCRF-CEM leukemia): > 100 µM | GI50 (SR leukemia): 47.4 µM | TGI (SR leukemia): > 100 µM | GI50 (HCT-116 colon): 94.1 µM | TGI (HCT-116 colon): > 100 µM | GI50 (HS 578T breast): > 100 µM | TGI (HS 578T breast): > 100 µM | GI50 (SNB-75 CNS): 15.9 µM | TGI (SNB-75 CNS): > 100 µM | GI50 (EKVX NSCLC): > 100 µM | TGI (EKVX NSCLC): > 100 µM | GI50 (IGROV1 ovarian): 5.47 µM | TGI (IGROV1 ovarian): 55.1 µM | GI50 (HCT-15 colon): > 100 µM | TGI (HCT-15 colon): > 100 µM | GI50 (SNB-19 CNS): > 100 µM | TGI (SNB-19 CNS): > 100 µM | GI50 (MALME-3M melanoma): > 100 µM | TGI (MALME-3M melanoma): > 100 µM | GI50 (SF-268 CNS): > 100 µM | TGI (SF-268 CNS): > 100 µM | GI50 (SW-620 colon): > 100 µM | TGI (SW-620 colon): > 100 µM | GI50 (DU-145 prostate): > 100 µM | TGI (DU-145 prostate): > 100 µM | GI50 (OVCAR-3 ovarian): > 100 µM | TGI (OVCAR-3 ovarian): > 100 µM | GI50 (COLO 205 colon): > 100 µM | TGI (COLO 205 colon): > 100 µM | GI50 (OVCAR-5 ovarian): > 100 µM | TGI (OVCAR-5 ovarian): > 100 µM | GI50 (HCC-2998 colon): > 100 µM | TGI (HCC-2998 colon): > 100 µM | GI50 (786-0 renal): 12.4 µM | TGI (786-0 renal): 93.1 µM | GI50 (T-47D breast): > 100 µM | TGI (T-47D breast): > 100 µM | GI50 (NCI/ADR-RES ovarian): > 100 µM | TGI (NCI/ADR-RES ovarian): > 100 µM | GI50 (K-562 leukemia): > 100 µM | TGI (K-562 leukemia): > 100 µM | GI50 (SK-MEL-5 melanoma): > 100 µM | TGI (SK-MEL-5 melanoma): > 100 µM | GI50 (ACHN renal): > 100 µM | TGI (ACHN renal): > 100 µM | GI50 (MDA-MB-231 breast): 23.7 µM | TGI (MDA-MB-231 breast): > 100 µM | GI50 (NCI-H226 lung): > 100 µM | TGI (NCI-H226 lung): > 100 µM | GI50 (NCI-H23 lung): > 100 µM | TGI (NCI-H23 lung): > 100 µM | GI50 (OVCAR-8 ovarian): > 100 µM | TGI (OVCAR-8 ovarian): > 100 µM | GI50 (BT-549 breast): > 100 µM | TGI (BT-549 breast): > 100 µM | GI50 (HOP-62 NSCLC): 2.14 µM | TGI (HOP-62 NSCLC): > 100 µM | GI50 (PC-3 prostate): > 100 µM | TGI (PC-3 prostate): > 100 µM | GI50 (NCI-H460 lung): > 100 µM | TGI (NCI-H460 lung): > 100 µM
